The target of the assay is T1, human Chemokine like receptor 1 (Homo sapiens, UniProt Q99788).
T1 construct: host or cells: U2OS (Tango CMKLR1-bla U2OS)
T1 sequence (Q99788 1-373): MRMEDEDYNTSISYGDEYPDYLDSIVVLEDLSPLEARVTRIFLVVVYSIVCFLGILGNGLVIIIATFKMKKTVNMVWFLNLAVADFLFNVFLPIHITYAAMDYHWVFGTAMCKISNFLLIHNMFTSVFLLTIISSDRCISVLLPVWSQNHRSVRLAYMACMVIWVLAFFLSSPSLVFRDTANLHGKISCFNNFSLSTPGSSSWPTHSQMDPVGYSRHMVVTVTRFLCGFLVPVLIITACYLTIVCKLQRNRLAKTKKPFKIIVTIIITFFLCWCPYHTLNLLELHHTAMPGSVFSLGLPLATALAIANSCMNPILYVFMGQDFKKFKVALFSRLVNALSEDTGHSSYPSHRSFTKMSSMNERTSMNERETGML
Briefly: Activation of Tango CMKLR1-bla U2OS cells (beta-lactamase FRET reporter). The class given is cell-based. In short, it runs like this:
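Agonist mode in Tango CMKLR1-bla U2OS cells, 10000 cells/well seeded overnight, then 10-point 3-fold compound dilutions from 10 mM DMSO stock applied for 4 h at 37 °C, 5% CO2. Beta-lactamase reporter read with CCF4-AM FRET substrate; peptide (D-Tyr)-Phe-Leu-Pro-(D-Ser)-Gln-Phe-(D-Ala)-Tic-Ser served as positive control.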

The mark [1] stands for this setting: determination by the method of Effect Embodiment 1, read-out: EC50.

Structures are written as SMILES. Where two headings read alike, the source gives them in different places. Square brackets hold non-standard residues; d marks the D form. Peptide text beside a SMILES is read from it. * marks the point of attachment. Benzoyl(4-CF3) = O=C(c1ccc(C(F)(F)F)cc1)*; dTyr(3-F) = N[C@H](Cc1ccc(O)c(F)c1)C(=O)O; Phe(4-Me) = Cc1ccc(C[C@H](N)C(=O)O)cc1; Pro(4,4-F2) = O=C(O)[C@@H]1CC(F)(F)CN1; 1Nal = N[C@@H](Cc1cccc2ccccc12)C(=O)O; 2Nal = N[C@@H](Cc1ccc2ccccc2c1)C(=O)O; Tic = O=C(O)[C@@H]1Cc2ccccc2CN1; NMeL = CN[C@@H](CC(C)C)C(=O)O; NMeS = CN[C@@H](CO)C(=O)O; Nle = CCCC[C@H](N)C(=O)O; Nva = CCC[C@H](N)C(=O)O

The EC50 is the concentration at which the effect is half-maximal. Consider `CC(C)C[C@@H](C(=O)N1CCC[C@H]1C(=O)N[C@H](CO)C(=O)N[C@@H](CCC(N)=O)C(=O)N[C@@H](Cc1ccccc1)C(=O)N[C@H](C)C(=O)N1Cc2ccccc2C[C@H]1C(=O)N[C@@H](CO)C(=O)O)N(C)C(=O)[C@H](Cc1ccccc1)NC(=O)[C@@H](Cc1ccc(O)cc1)NC(=O)c1ccc(C(F)(F)F)cc1` [YW-195, 4-(trifluoromethyl)benzoyl-(D-Tyr)-Phe-(NMe-Leu)-Pro-(D-Ser)-Gln-Phe-(D-Ala)-Tic-Ser] ({Benzoyl(4-CF3)}-[dY]F[NMeL]P[dS]QF[dA][Tic]S-OH), for which the half-maximal effective concentration (EC50) under setting [1] came to 0.8 nM.
In turn, `CCC[C@H](NC(=O)[C@H](Cc1ccccc1)NC(=O)[C@H](N)Cc1ccc(O)cc1)C(=O)N1CCC[C@H]1C(=O)N[C@H](CO)C(=O)N[C@@H](CCC(N)=O)C(=O)N[C@@H](Cc1ccccc1)C(=O)N[C@H](C)C(=O)N1Cc2ccccc2C[C@H]1C(=O)N[C@@H](CO)C(=O)O` [YW-196, (D-Tyr)-Phe-Nva-Pro-(D-Ser)-Gln-Phe-(D-Ala)-Tic-Ser] (H-[dY]F[Nva]P[dS]QF[dA][Tic]S-OH) gave a concentration giving a half-maximal response (EC50) of 39 nM.
In the case of `CCCC[C@H](NC(=O)[C@H](Cc1ccccc1)NC(=O)[C@H](N)Cc1ccc(O)cc1)C(=O)N1CCC[C@H]1C(=O)N[C@H](CO)C(=O)N[C@@H](CCC(N)=O)C(=O)N[C@@H](Cc1ccccc1)C(=O)N[C@H](C)C(=O)N1Cc2ccccc2C[C@H]1C(=O)N[C@@H](CO)C(=O)O` [YW-197, (D-Tyr)-Phe-Nle-Pro-(D-Ser)-Gln-Phe-(D-Ala)-Tic-Ser] (H-[dY]F[Nle]P[dS]QF[dA][Tic]S-OH), the EC50 came to 10 nM.
The same measure, in the same setting: the value for `CC(C)C[C@@H](C(=O)N1CCC[C@H]1C(=O)N[C@H](CO)C(=O)N[C@@H](CCC(N)=O)C(=O)N[C@@H](Cc1ccccc1)C(=O)N[C@H](C)C(=O)N1Cc2ccccc2C[C@H]1C(=O)N[C@@H](CO)C(=O)O)N(C)C(=O)[C@H](Cc1cccc2ccccc12)NC(=O)[C@H](N)Cc1ccc(O)cc1` [YW-199, (D-Tyr)-1Nal-(NMe-Leu)-Pro-(D-Ser)-Gln-Phe-(D-Ala)-Tic-Ser] (H-[dY][1Nal][NMeL]P[dS]QF[dA][Tic]S-OH) was 2.9 nM; that for `CC(C)C[C@@H](C(=O)N1CCC[C@H]1C(=O)N[C@H](CO)C(=O)N[C@@H](CCC(N)=O)C(=O)N[C@@H](Cc1ccccc1)C(=O)N[C@H](C)C(=O)N1Cc2ccccc2C[C@H]1C(=O)N[C@@H](CO)C(=O)O)N(C)C(=O)[C@H](Cc1ccc2ccccc2c1)NC(=O)[C@H](N)Cc1ccc(O)cc1` [YW-200, (D-Tyr)-2Nal-(NMe-Leu)-Pro-(D-Ser)-Gln-Phe-(D-Ala)-Tic-Ser] (H-[dY][2Nal][NMeL]P[dS]QF[dA][Tic]S-OH) was 19 nM.
Consider `CC(C)C[C@@H](C(=O)N1CCC[C@H]1C(=O)N[C@@H](C(=O)N[C@@H](CCC(N)=O)C(=O)N[C@@H](Cc1ccccc1)C(=O)N[C@H](C)C(=O)N1Cc2ccccc2C[C@H]1C(=O)N[C@@H](CO)C(=O)O)[C@H](C)O)N(C)C(=O)[C@H](Cc1ccccc1)NC(=O)[C@H](N)Cc1ccc(O)cc1` [YW-204, (D-Tyr)-Phe-(NMe-Leu)-Pro-(D-Thr)-Gln-Phe-(D-Ala)-Tic-Ser] (H-[dY]F[NMeL]P[dT]QF[dA][Tic]S-OH; N-terminus assumed), for which the EC50 under setting [1] amounted to 62 nM.
As for `Cc1ccc(C[C@H](NC(=O)[C@@H](C)NC(=O)[C@H](Cc2ccccc2)NC(=O)[C@H](CCC(N)=O)NC(=O)[C@@H](CO)NC(=O)[C@@H]2CCCN2C(=O)[C@H](CC(C)C)N(C)C(=O)[C@H](Cc2ccccc2)NC(=O)[C@H](N)Cc2ccc(O)cc2)C(=O)N[C@@H](CO)C(=O)O)cc1` [YW-205, (D-Tyr)-Phe-(NMe-Leu)-Pro-(D-Ser)-Gln-Phe-(D-Ala)-Phe(4-Me)-Ser] (H-[dY]F[NMeL]P[dS]QF[dA][Phe(4-Me)]S-OH), the concentration giving a half-maximal response (EC50) under setting [1] was 6.2 nM.
On to `CC(C)C[C@@H](C(=O)N1CC(F)(F)C[C@H]1C(=O)N[C@H](CO)C(=O)N[C@@H](CCC(N)=O)C(=O)N[C@@H](Cc1ccc2ccccc2c1)C(=O)N[C@H](C)C(=O)N1Cc2ccccc2C[C@H]1C(=O)N(C)[C@@H](CO)C(=O)O)N(C)C(=O)[C@H](Cc1ccccc1)NC(=O)[C@H](N)Cc1ccc(O)cc1` [YW-224, (D-Tyr)-Phe-(NMe-Leu)-Pro(diF)-(D-Ser)-Gln-2Nal-(D-Ala)-Tic-NMeSer] (H-[dY]F[NMeL][Pro(4,4-F2)][dS]Q[2Nal][dA][Tic][NMeS]-OH), for which the response was half-maximal at 1.3 nM (EC50).
`CC(C)C[C@@H](C(=O)N1CC(F)(F)C[C@H]1C(=O)N[C@H](CO)C(=O)N[C@@H](CCC(N)=O)C(=O)N[C@@H](Cc1ccc2ccccc2c1)C(=O)N[C@H](C)C(=O)N1Cc2ccccc2C[C@H]1C(=O)N(C)[C@@H](CO)C(=O)O)N(C)C(=O)[C@H](Cc1ccccc1)NC(=O)[C@H](N)Cc1ccc(O)c(F)c1` [YW-226, (D-Tyr(3F))-Phe-(NMe-Leu)-(DiFluorPro)-(D-Ser)-Gln-(Nal-2)-(D-Ala)-Tic-(NMe-Ser)] (H-[dTyr(3-F)]F[NMeL][Pro(4,4-F2)][dS]Q[2Nal][dA][Tic][NMeS]-OH): under setting [1], the half-maximal effective concentration (EC50) is 3.3 nM.

The values above are taken from US12129312B2, “Peptide compound, application thereof and composition containing same” (priority 2017, dated 2024).
